Where two headings read alike, the source gives them in different places.
Key:
[1] = test system: tyrosinase; experiment: Measurement of Dopa Oxidation Activity (formation of dopa quinone from dopa); type: biochemical, Mushroom; conditions: L-dopa 5×10^-3 M; 10 units tyrosinase; 475 nm; control 15.80
Excerpt: (§1) Tyrosinase is a copper-containing enzyme which controls synthesis of melanin from starting tyrosine. This enzyme is considered to act as a catalyst for the formation of dopa, dopaquinone and indole-5,6-quinone which are, respectively, intermediates for the synthesis of melanin. We measured activities of the resorcinol derivatives of the formula (1) on inhibition of the formation reactions of the former two intermediates, i.e. the formation reaction of dopa (tyrosine hydroxylase) from tyrosine and the formation reaction of dopa quinone (dopa oxidase) from the dopa. From this, the activity on the tyrosinase activity inhibition was determined.
(§2) The presence or absence of UV absorptions of the substrate and the substance to be detected was confirmed, after which […] of tyrosinase (Mushroom, 200 units, made by Sigma Co., Ltd.) was added for starting the reaction. The variation in absorbance at 280 nm which is a maximum absorption of L-dopa was measured. The tyrosine hydroxylation activity was indicated a nmol dopa/min/mg of protein. The amount of the protein was measured according to Lowry's method.
(2) Measurement of Dopa Oxidation Activity
The general procedure of Measurement (1) was repeated except that L-dopa (5×10^-3 M) was used as a that produced dopa chrome was measured at a wavelength of 475 nm, and that 10 units of tyrosinase were used.
The dopa oxidation activity was indicated as μmol of dopa chrome/min/mg of protein.

[2] = test system: tyrosinase; experiment: Measurement of Tyrosine Hydroxylation Activity (formation of dopa from tyrosine); type: biochemical; conditions: L-tyrosine 1×10^-4 M; 200 units mushroom tyrosinase; absorbance at 280 nm; control 1.83
Excerpt: as §1
(1) Measurement of Tyrosine Hydroxylation Activity
as §2

[3] = test system: skin; conditions: cited from earlier work
[4] = in vivo; conditions: mouse, ddy male mice
Method: The life or death of the mice before 24 hours was observed. The value of LD50 was calculated according to the Litchfield-Wilcoxom method using the above results.

[5] = test system: salmonella typhimuria; conditions: Ames test using salmonella typhimuria
[6] = ip, intraperitoneal, read-out: LD50 i.p.
[7] = po, peroral, read-out: LD50 p.o.
[8] = sc, subcutaneous, read-out: LD50 s.c.

| SMILES | Activity (dopa oxidation activity) [1] | Activity (tyrosine hydroxylation activity) [2] | also measured |
| --- | --- | --- | --- |
| CCCCCCCCc1ccc(O)cc1O [Experiment 11] | 0.00 μmol of dopa chrome/min/mg of |  |  |
| CCCCc1ccc(O)cc1O [Experiment 2] |  | 0.00 nmol dopa/min/mg of protein |  |
| CC(C)CCc1ccc(O)cc1O [Experiment 9] | 0.00 μmol of dopa chrome/min/mg of |  |  |
| Cc1ccc(O)cc1O [Comparative Experiment 1, reference compound] |  | 1.78 nmol dopa/min/mg of protein |  |
| CCCCCCc1ccc(O)cc1O [Experiment 4] |  | 0.00 nmol dopa/min/mg of protein |  |
| N[C@@H](CS)C(=O)O [cysteine] |  |  | depigmental effect [3]: do not exhibit a satisfactory depigmental effect since the development of the effect is very slow |
| CCCCCCc1ccc(O)cc1O [drawing 16] |  |  | LD50 at 24 h [4, 6]: 335 mg/kg; LD50 at 24 h [4, 7]: > 500 mg/kg; LD50 at 24 h [4, 8]: > 500 mg/kg |
| CC(C)CCc1ccc(O)cc1O [Isoamyl resorcinol, 4-Isoamyl resorcinol] |  |  | variability (Ames test) [5]: no variability |
| Oc1ccc(O)cc1 [hydroquinone, reference compound] | 26.94 μmol of dopa chrome/min/mg of | 0.00 nmol dopa/min/mg of protein |  |
| CC(C)CCc1ccc(O)cc1O [Experiment 3] |  | 0.00 nmol dopa/min/mg of protein |  |
| N[C@@H](CCC(=O)N[C@@H](CS)C(=O)NCC(=O)O)C(=O)O [glutathione] |  |  | depigmental effect [3]: do not exhibit a satisfactory depigmental effect since the development of the effect is very slow |
| Cc1ccc(O)cc1O [drawing 15, reference compound] | 16.81 μmol of dopa chrome/min/mg of |  |  |
| CCc1ccc(O)cc1O [Experiment 7] | 7.44 μmol of dopa chrome/min/mg of |  |  |
| CCc1ccc(O)cc1O [drawing 2] |  | 0.00 nmol dopa/min/mg of protein |  |
| CCCCCCCCc1ccc(O)cc1O [Experiment 5] |  | 0.00 nmol dopa/min/mg of protein |  |
| CCCCCCCCCCCCc1ccc(O)cc1O [Experiment 12] | 7.19 μmol of dopa chrome/min/mg of |  |  |
| CCCCCCCCCCCCc1ccc(O)cc1O [Experiment 6] |  | 0.33 nmol dopa/min/mg of protein |  |
| CCCCCCc1ccc(O)cc1O [Experiment 10] | 0.00 μmol of dopa chrome/min/mg of |  |  |
| CC(C)CCc1ccc(O)cc1O [drawing 17] |  |  | LD50 at 24 h [4, 6]: 269 mg/kg; LD50 at 24 h [4, 7]: > 500 mg/kg; LD50 at 24 h [4, 8]: > 500 mg/kg |
| CCCCc1ccc(O)cc1O [Experiment 8] | 0.00 μmol of dopa chrome/min/mg of |  |  |

From US4959393A, “Skin depigmental agent” (priority 1988, dated 1990)
